Molecules are shown by their SMILES.

The results in this text go back to US20250214991A1 (Oncopia Therapeutics, Inc. d/b/a/ SK Life Science Labs, priority 2022, published 2025).

One experiment has as its target CRBN/DDB1 (Homo sapiens (Human), UniProt Q96SW2). Description: IC50 measurements for binding to CRBN/DDB1 (HTRF). The following applies: His tagged CRBN+DDB, Cy5-labeled Thalidomide probe, one hour. An outline of the steps:
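HTRF competition binding with 2 nM His-tagged CRBN-DDB1 complex, 60 nM Cy5-thalidomide probe and 0.4 nM anti-His Tb cryptate in 50 mM HEPES pH 7.5, 1 mM TCEP, 0.01% Brij-35, 50 mM NaCl, 0.1% BSA. Read after 1 h at room temperature; IC50 from four-parameter dose-response fit.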

The target in another experiment is IKZF2 (Homo sapiens (Human), UniProt Q96SW2+Q9UKS7). Description: In vitro IKZF2 HiBit Assay (HEK293T Flp-in-HiBiT cells). The class given is cell-based. The following applies: HEK293T Flp-in-HiBiT cells, 6 hrs incubation; for DC50: read-out: IKZF2 HiBit DC50; for Dmax: HEK-293T, read-out: IKZF2 HiBit Dmax (%). An outline of the steps: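 HEK293T Flp-in cells carrying an endogenous N-terminal HiBiT tag on IKZF2 were exposed to compound for 6 h at 0.1% DMSO. The dilution series was 11 doses at 3-fold, diluted from 1 mM. Nano-Glo HiBiT lytic luminescence, normalized to DMSO, gave DC50 for 50% degradation and Dmax across the concentration range, both reported in letter bins.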
(With HiBiT, luminescence reflects the tagged protein that the partner subunit can reach.)

The target of the next experiment is IKZF1 (Homo sapiens (Human), UniProt Q13422+Q96SW2). Briefly: In vitro IKZF1 HiBit Assay (HEK293T Flp-in-HiBiT-IKZF1 stable cell line). The format is cell-based. The following applies: HEK293T Flp-in-HiBiT-IKZF1 stable cell line, 6 hrs incubation; for DC50: read-out: IKZF1 HiBit DC50; for Dmax: HEK-293T, read-out: IKZF1 HiBit Dmax (%). An outline of the steps:
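HEK293T Flp-in cells carrying N-terminal HiBiT-tagged IKZF1 were exposed to compound (0.1% DMSO) for 6 h at 3000 cells/well. HiBiT luminescence was read after lytic LgBiT detection. DC50 and Dmax were taken from DMSO-normalized dose-response curves.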

Sequence of CRBN/DDB1 (Q96SW2 whole entry, species assumed): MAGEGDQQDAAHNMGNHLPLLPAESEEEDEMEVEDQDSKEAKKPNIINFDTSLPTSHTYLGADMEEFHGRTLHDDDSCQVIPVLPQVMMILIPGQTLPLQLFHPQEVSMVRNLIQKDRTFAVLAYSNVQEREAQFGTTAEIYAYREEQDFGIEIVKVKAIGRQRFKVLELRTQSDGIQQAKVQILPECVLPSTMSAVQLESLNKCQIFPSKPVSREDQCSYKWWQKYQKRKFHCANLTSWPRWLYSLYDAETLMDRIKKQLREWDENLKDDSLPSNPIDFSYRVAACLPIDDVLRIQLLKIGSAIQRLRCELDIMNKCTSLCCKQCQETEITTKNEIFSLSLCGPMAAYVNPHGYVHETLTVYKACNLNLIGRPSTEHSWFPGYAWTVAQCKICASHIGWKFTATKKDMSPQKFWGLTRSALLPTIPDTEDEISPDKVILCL
Sequence of CRBN/DDB1 (Q16531 whole entry partner, species assumed): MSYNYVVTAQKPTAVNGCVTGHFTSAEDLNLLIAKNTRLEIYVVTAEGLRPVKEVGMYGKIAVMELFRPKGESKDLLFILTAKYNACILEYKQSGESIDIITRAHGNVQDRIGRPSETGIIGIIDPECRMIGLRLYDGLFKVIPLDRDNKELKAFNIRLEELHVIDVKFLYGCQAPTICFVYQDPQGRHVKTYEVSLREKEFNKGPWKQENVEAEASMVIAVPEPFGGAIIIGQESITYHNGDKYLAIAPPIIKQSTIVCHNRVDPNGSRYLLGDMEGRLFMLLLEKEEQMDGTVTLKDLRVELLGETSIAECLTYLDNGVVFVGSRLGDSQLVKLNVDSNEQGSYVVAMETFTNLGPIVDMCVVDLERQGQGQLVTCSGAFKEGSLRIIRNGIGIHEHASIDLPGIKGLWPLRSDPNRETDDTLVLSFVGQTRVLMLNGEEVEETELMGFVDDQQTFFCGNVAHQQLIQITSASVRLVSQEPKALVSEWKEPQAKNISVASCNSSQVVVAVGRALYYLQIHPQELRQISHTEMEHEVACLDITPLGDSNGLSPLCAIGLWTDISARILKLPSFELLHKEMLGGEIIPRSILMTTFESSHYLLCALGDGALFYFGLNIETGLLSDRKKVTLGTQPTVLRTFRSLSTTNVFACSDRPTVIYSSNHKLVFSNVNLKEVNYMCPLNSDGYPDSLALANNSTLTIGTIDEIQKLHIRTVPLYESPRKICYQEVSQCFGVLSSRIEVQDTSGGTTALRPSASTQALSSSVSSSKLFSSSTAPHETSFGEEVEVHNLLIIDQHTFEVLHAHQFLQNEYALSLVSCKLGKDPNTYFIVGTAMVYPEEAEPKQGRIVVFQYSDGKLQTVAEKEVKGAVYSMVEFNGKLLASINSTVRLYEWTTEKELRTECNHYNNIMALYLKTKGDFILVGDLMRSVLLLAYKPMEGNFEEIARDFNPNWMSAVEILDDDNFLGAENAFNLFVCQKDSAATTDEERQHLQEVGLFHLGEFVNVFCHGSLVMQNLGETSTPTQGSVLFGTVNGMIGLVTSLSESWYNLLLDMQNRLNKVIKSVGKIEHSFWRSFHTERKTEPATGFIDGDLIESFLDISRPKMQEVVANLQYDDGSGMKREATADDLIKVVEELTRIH
Sequence of IKZF1 (Q13422 whole entry): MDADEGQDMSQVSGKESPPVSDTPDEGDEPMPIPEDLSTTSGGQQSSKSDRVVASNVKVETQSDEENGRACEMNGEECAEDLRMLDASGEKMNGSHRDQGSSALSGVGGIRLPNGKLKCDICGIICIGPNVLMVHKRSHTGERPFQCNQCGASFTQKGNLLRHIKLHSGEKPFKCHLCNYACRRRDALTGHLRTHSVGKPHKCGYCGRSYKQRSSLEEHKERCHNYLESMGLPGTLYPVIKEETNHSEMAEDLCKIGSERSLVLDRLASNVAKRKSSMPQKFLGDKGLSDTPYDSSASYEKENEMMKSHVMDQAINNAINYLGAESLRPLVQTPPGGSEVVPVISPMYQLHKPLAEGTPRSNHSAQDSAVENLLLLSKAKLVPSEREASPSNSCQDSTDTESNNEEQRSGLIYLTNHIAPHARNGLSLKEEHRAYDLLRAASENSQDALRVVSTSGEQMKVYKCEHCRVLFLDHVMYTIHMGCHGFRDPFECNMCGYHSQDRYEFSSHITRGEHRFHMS
Sequence of IKZF1 (Q96SW2 whole entry): as the sequence (Q96SW2 whole entry, species assumed) above
Sequence of IKZF1 (Q16531 2-1140 partner): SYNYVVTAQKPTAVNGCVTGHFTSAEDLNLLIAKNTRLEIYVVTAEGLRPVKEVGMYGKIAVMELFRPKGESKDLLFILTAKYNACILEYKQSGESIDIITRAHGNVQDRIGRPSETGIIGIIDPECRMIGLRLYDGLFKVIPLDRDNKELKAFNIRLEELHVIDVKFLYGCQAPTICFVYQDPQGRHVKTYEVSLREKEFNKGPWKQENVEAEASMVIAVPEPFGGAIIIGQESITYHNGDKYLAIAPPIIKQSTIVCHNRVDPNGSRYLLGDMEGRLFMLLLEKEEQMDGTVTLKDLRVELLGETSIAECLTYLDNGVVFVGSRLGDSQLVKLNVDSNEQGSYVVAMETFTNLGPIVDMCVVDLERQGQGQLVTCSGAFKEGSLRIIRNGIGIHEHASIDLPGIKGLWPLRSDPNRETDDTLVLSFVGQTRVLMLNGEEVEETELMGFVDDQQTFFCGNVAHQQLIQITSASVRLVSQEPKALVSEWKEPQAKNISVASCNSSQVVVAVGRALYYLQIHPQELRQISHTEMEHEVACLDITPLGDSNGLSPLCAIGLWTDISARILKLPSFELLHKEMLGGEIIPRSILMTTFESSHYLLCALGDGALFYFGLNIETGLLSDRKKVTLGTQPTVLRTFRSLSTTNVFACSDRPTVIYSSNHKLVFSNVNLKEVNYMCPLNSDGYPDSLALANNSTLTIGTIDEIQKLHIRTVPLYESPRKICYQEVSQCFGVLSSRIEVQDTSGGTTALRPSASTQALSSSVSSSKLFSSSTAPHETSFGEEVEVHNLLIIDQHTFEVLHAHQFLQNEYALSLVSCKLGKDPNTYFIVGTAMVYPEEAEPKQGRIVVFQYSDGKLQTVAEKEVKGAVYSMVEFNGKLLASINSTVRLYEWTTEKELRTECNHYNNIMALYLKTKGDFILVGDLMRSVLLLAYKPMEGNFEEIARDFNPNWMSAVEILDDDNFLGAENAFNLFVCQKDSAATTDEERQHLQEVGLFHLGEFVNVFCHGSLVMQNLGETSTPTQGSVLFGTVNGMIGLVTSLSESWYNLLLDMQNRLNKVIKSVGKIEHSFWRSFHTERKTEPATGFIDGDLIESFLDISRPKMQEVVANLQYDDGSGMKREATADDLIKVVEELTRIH
Sequence of IKZF2 (Q9UKS7 whole entry): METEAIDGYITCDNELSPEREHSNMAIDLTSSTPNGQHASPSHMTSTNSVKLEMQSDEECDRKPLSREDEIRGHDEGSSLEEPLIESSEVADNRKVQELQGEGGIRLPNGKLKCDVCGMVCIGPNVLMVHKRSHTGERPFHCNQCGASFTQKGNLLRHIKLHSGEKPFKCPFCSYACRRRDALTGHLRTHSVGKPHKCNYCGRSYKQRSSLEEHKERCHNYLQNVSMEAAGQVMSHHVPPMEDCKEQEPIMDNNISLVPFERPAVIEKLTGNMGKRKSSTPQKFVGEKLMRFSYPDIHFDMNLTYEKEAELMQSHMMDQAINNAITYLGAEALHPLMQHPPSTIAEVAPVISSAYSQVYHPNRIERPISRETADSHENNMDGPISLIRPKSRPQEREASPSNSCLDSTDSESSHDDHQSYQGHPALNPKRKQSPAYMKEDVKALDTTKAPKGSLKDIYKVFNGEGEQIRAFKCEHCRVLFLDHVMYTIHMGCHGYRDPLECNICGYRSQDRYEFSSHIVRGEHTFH
Sequence of IKZF2 (Q96SW2 whole entry): as the sequence (Q96SW2 whole entry, species assumed) above
Sequence of IKZF2 (Q16531 2-1140 partner): as the sequence (Q16531 2-1140 partner) above

One may read the IC50 as the concentration at which inhibition is half-maximal. Higher therefore signals weaker potency in that assay. Consider `Cn1ccc2c(CN3CCC(O)CC3)cc(-c3ccc4c(c3)CN(C3CCC(=O)NC3=O)C4=O)nc21` (stereo not shown) [Example 305, 3-(5-(4-((4-hydroxypiperidin-1-yl)methyl)-1-methyl-1H-pyrrolo[2,3-b]pyridin-6-yl)-1-oxoisoindolin-2-yl) piperidine-2,6-dione], for which the half-maximal inhibitory concentration (IC50) on CRBN/DDB1 was 1000 to 5000 nM. Besides, on IKZF2, the DC50 fell in the range of 1 to 10 nM and the Dmax was > 80%. For the same molecule, at IKZF1, the DC50 is > 10000 nM and the Dmax was < 20%.

On CRBN/DDB1, `O=C1CCC(N2Cc3cc(-c4cc(CN5CCC(F)C5)c5cc[nH]c5n4)ccc3C2=O)C(=O)N1` (stereo not shown) [Example 127, 3-(5-(4-((3-fluoropyrrolidin-1-yl)methyl)-1H-pyrrolo[2,3-b]pyridin-6-yl)-1-oxoisoindolin-2-yl) piperidine-2,6-dione] had an IC50 of 100 to 500 nM. The DC50 on IKZF2 was in the range of 1 to 10 nM; at IKZF1 it was 100 to 1000 nM. In addition, the Dmax was > 80% at IKZF2 and 20 to 40% at IKZF1.

On to `Cn1ccc2c(CN3CCN4CCCC4C3)cc(-c3ccc4c(c3)CN(C3CCC(=O)NC3=O)C4=O)nc21` (stereo not shown) [Example 95, 3-(5-(4-((hexahydropyrrolo[1,2-a]pyrazin-2 (1H)-yl)methyl)-1-methyl-1H-pyrrolo[2,3-b]pyridin-6-yl)-1-oxoisoindolin-2-yl) piperidine-2,6-dione], for which, at CRBN/DDB1, the IC50 was 100 to 500 nM. Also, the DC50 at IKZF2 was 1 to 10 nM; at IKZF1, > 10000 nM. Further, the Dmax on IKZF2 was 60 to 80%; on IKZF1, < 20%.

`Cn1ccc2c(CN3CC(O)C3)cc(-c3ccc4c(c3)CN(C3CCC(=O)NC3=O)C4=O)nc21` (stereo not shown) [Example 306, 3-(5-(4-((3-hydroxyazetidin-1-yl)methyl)-1-methyl-1H-pyrrolo[2,3-b]pyridin-6-yl)-1-oxoisoindolin-2-yl) piperidine-2,6-dione] yielded a half-inhibitory concentration (IC50) on CRBN/DDB1 of 100 to 500 nM. Also, the DC50 was in the range of 10 to 100 nM at IKZF2 and 100 to 1000 nM at IKZF1. The Dmax at IKZF2 was > 80%; on IKZF1 it was 20 to 40%.

Regarding `Nc1n[nH]c2c(CN3CC4COCC4C3)cc(-c3ccc4c(c3)CN(C3CCC(=O)NC3=O)C4=O)nc12` (stereo not shown) [Example 214, 3-(5-(3-amino-7-((tetrahydro-1H-furo[3,4-c]pyrrol-5 (3H)-yl)methyl)-1H-pyrazolo[4,3-b]pyridin-5-yl)-1-oxoisoindolin-2-yl) piperidine-2,6-dione], at CRBN/DDB1, the half-inhibitory concentration (IC50) lay in the range of 100 to 500 nM. Also, the DC50 on IKZF2 was 100 to 1000 nM; at IKZF1, > 10000 nM. In addition, the Dmax is 60 to 80% at IKZF2 and < 20% at IKZF1.

Regarding `Cn1ccc2c(CN3CCC(C#N)CC3)cc(-c3ccc4c(c3)CN(C3CCC(=O)NC3=O)C4=O)nc21` (stereo not shown) [Example 309, 1-((6-(2-(2,6-dioxopiperidin-3-yl)-1-oxoisoindolin-5-yl)-1-methyl-1H-pyrrolo[2,3-b]pyridin-4-yl)methyl) piperidine-4-carbonitrile], the IC50 on CRBN/DDB1 was 1000 to 5000 nM. Also, on IKZF2, the DC50 lay in the range of 1 to 10 nM and the Dmax was > 80%. In addition, at IKZF1, the DC50 fell in the range of 1000 to 10000 nM and the Dmax was in the range of 20 to 40%.

In the case of `O=C1CCC(N2Cc3cc(-c4cc(CN5CCC(O)C5)c5ccn(C6CC6)c5n4)ccc3C2=O)C(=O)N1` (stereo not shown) [Example 142, 3-(5-(1-cyclopropyl-4-((3-hydroxypyrrolidin-1-yl)methyl)-1H-pyrrolo[2,3-b]pyridin-6-yl)-1-oxoisoindolin-2-yl) piperidine-2,6-dione], at CRBN/DDB1, the IC50 fell in the range of 500 to 1000 nM. For the same molecule, the DC50 was 1 to 10 nM on IKZF2 and > 10000 nM at IKZF1. Also, the figures for the Dmax on IKZF2 and on IKZF1 were > 80% and < 20%, respectively.

As for `Cn1ccc2c(CN3CCS(=O)(=O)CC3)cc(-c3ccc4c(c3)CN(C3CCC(=O)NC3=O)C4=O)nc21` (stereo not shown) [Example 68, 3-(5-(4-((1,1-dioxidothiomorpholino)methyl)-1-methyl-1H-pyrrolo[2,3-b]pyridin-6-yl)-1-oxoisoindolin-2-yl) piperidine-2,6-dione], at CRBN/DDB1, the IC50 lay within 1000 to 5000 nM. For the same molecule, at IKZF2, the DC50 fell in the range of 100 to 1000 nM and the Dmax is 20 to 40%. Moreover, on IKZF1, the DC50 was > 10000 nM and the Dmax is < 20%.

In turn, `CC#CCn1ccc2c(CN3CCCC3)cc(-c3ccc4c(c3)CN(C3CCC(=O)NC3=O)C4=O)nc21` (stereo not shown) [Example 148, 3-(5-(1-(but-2-yn-1-yl)-4-(pyrrolidin-1-ylmethyl)-1H-pyrrolo[2,3-b]pyridin-6-yl)-1-oxoisoindolin-2-yl) piperidine-2,6-dione] yielded a concentration for half-maximal inhibition (IC50) on CRBN/DDB1 of 100 to 500 nM. For the same molecule, on IKZF2, the DC50 is 1 to 10 nM and the Dmax was 60 to 80%. Besides, at IKZF1, the DC50 was > 10000 nM and the Dmax was < 20%.

`Cn1ccc2c(C3CCCCN3)cc(-c3ccc4c(c3)CN([C@H]3CCC(=O)NC3=O)C4=O)nc21` (stereo partly drawn) [Example 231, (3S)-3-(5-(1-methyl-4-(piperidin-2-yl)-1H-pyrrolo[2,3-b]pyridin-6-yl)-1-oxoisoindolin-2-yl) piperidine-2,6-dione] came in with a half-inhibitory concentration (IC50) on CRBN/DDB1 of 100 to 500 nM. On IKZF2, the DC50 lay in the range of 10 to 100 nM and the Dmax was 40 to 60%. At IKZF1, the DC50 lay within 1 to 10 nM and the Dmax is 20 to 40%.

`CCn1ccc2c(CN3CCCC3)cc(-c3ccc4c(c3)CN(C3CCC(=O)NC3=O)C4=O)nc21` (stereo not shown) [Example 74, 3-(5-(1-ethyl-4-(pyrrolidin-1-ylmethyl)-1H-pyrrolo[2,3-b]pyridin-6-yl)-1-oxoisoindolin-2-yl) piperidine-2,6-dione]: the half-inhibitory concentration (IC50) on CRBN/DDB1 is 500 to 1000 nM. Moreover, at IKZF2, the DC50 is 1 to 10 nM and the Dmax was > 80%. Further, at IKZF1, the DC50 is > 10000 nM and the Dmax was < 20%.

On to `O=C1CCC(N2Cc3cc(-c4cc(CN5CCCC5)c5ccn(-c6ccccc6)c5n4)ccc3C2=O)C(=O)N1` (stereo not shown) [Example 139, 3-(1-oxo-5-(1-phenyl-4-(pyrrolidin-1-ylmethyl)-1H-pyrrolo[2,3-b]pyridin-6-yl)isoindolin-2-yl) piperidine-2,6-dione], for which the IC50 at CRBN/DDB1 fell in the range of 500 to 1000 nM. Besides, at IKZF2, the DC50 fell in the range of 1 to 10 nM and the Dmax lay within 60 to 80%. At IKZF1, the DC50 was 10 to 100 nM and the Dmax lay in the range of 20 to 40%.

Take `CN(C)C(=O)Cn1ccc2c(CN3CCCC3)cc(-c3ccc4c(c3)CN(C3CCC(=O)NC3=O)C4=O)nc21` (stereo not shown) [Example 149, 2-(6-(2-(2,6-dioxopiperidin-3-yl)-1-oxoisoindolin-5-yl)-4-(pyrrolidin-1-ylmethyl)-1H-pyrrolo[2,3-b]pyridin-1-yl)-N,N-dimethylacetamide]: the IC50 at CRBN/DDB1 lay in the range of 1000 to 5000 nM. The DC50 is 100 to 1000 nM on IKZF2 and > 10000 nM at IKZF1. In addition, the Dmax is 20 to 40% at IKZF2 and < 20% on IKZF1.

`O=C1CCC(N2Cc3cc(-c4cc(CN5CCCC5)c5c(n4)NC(=O)C5)ccc3C2=O)C(=O)N1` (stereo not shown) [Example 200, 3-(1-oxo-5-(2-oxo-4-(pyrrolidin-1-ylmethyl)-2,3-dihydro-1H-pyrrolo[2,3-b]pyridin-6-yl)isoindolin-2-yl) piperidine-2,6-dione] yielded an IC50 on CRBN/DDB1 of 100 to 500 nM. At IKZF2, the DC50 lay in the range of 100 to 1000 nM and the Dmax was in the range of 60 to 80%. Also, at IKZF1, the DC50 is 100 to 1000 nM and the Dmax was in the range of 20 to 40%.

`O=C1CCC(N2Cc3c(ccc(-c4cc(CN5CCCC5)c5cc[nH]c5n4)c3F)C2=O)C(=O)N1` (stereo not shown) [Example 126, 3-(4-fluoro-1-oxo-5-(4-(pyrrolidin-1-ylmethyl)-1H-pyrrolo[2,3-b]pyridin-6-yl)isoindolin-2-yl) piperidine-2,6-dione]: the concentration for half-maximal inhibition (IC50) on CRBN/DDB1 fell in the range of 100 to 500 nM. Besides, at IKZF2, the DC50 was < 1 nM and the Dmax is > 80%. In addition, on IKZF1, the DC50 was in the range of 1 to 10 nM and the Dmax lay within 40 to 60%.

The molecule `O=C1CCC(N2Cc3cc(-c4cc(CN5CCC6(CC5)COC6)c5ccn(C6COC6)c5n4)ccc3C2=O)C(=O)N1` (stereo not shown) [Example 188, 3-(5-(4-((2-oxa-7-azaspiro[3.5]nonan-7-yl)methyl)-1-(oxetan-3-yl)-1H-pyrrolo[2,3-b]pyridin-6-yl)-1-oxoisoindolin-2-yl) piperidine-2,6-dione] gave an IC50 on CRBN/DDB1 of 500 to 1000 nM. Also, on IKZF2, the DC50 was 1 to 10 nM and the Dmax is 60 to 80%. Besides, on IKZF1, the DC50 is > 10000 nM and the Dmax was < 20%.

In turn, `Cn1cc2c(CN3CCCC3)cc(-c3ccc4c(c3)CN(C3CCC(=O)NC3=O)C4=O)nc2n1` (stereo not shown) [Example 315, 3-(5-(2-methyl-4-(pyrrolidin-1-ylmethyl)-2H-pyrazolo[3,4-b]pyridin-6-yl)-1-oxoisoindolin-2-yl) piperidine-2,6-dione] displayed an IC50 on CRBN/DDB1 of 100 to 500 nM. Moreover, on IKZF2, the DC50 lay in the range of 10 to 100 nM and the Dmax is > 80%. For the same molecule, at IKZF1, the DC50 lay in the range of 10 to 100 nM and the Dmax lay in the range of 20 to 40%.
